According to patent US12357630B2, “Ceritinib formulation” (Novartis AG, priority 2014, dated 2025):
Converted amounts (≈) assume the structure as drawn.

Legend:
[1] = Solubility in water; type: physicochemical; settings: 25° C.
Procedure: (§1) Ceritinib is a difficult compound to formulate. […] In addition, physical characteristics of Ceritinib cause sticking and picking during tableting or encapsulation of the drug and make it poorly compressible. Furthermore, the drug is administered at a high dose of 750 mg, which would require a patient to take daily up to 5 units of 150 mg. If the dose is to be increased in a respective dosage form, the increase in drug load generally negatively affects the compressibility of a tablet. Ceritinib's sticky nature causes a high drug load to further negatively influence the manufacturing of tablets due to enhanced sticking/picking.

[2] = Permeability / Biopharmaceutics Classification System; type: in vitro ADME
Procedure: as §1

Cc1cc(Nc2ncc(Cl)c(Nc3ccccc3S(=O)(=O)C(C)C)n2)c(OC(C)C)cc1C1CCNCC1 [Ceritinib, 5-chloro-N^2-(2-isopropoxy-5-methyl-4-(piperidin-4-yl)phenyl)-N^4-[2-(propane-2-sulfonyl)-phenyl]-pyrimidine-2,4-diamine]
solubility [1]: 20 µg/mL (≈ 35.8 µM) | permeability [2]: low permeability
